Measured values as given in US20040028749A1, “Treating inflammation and associated complications” (priority 2000, published 2004).

Target: T1, EPO (Sus scrofa, UniProt P80550)
T1 construct: from tissue; host or cells: porcine whole blood (leukocytes/eosinophils)
T1 sequence (P80550 143-704): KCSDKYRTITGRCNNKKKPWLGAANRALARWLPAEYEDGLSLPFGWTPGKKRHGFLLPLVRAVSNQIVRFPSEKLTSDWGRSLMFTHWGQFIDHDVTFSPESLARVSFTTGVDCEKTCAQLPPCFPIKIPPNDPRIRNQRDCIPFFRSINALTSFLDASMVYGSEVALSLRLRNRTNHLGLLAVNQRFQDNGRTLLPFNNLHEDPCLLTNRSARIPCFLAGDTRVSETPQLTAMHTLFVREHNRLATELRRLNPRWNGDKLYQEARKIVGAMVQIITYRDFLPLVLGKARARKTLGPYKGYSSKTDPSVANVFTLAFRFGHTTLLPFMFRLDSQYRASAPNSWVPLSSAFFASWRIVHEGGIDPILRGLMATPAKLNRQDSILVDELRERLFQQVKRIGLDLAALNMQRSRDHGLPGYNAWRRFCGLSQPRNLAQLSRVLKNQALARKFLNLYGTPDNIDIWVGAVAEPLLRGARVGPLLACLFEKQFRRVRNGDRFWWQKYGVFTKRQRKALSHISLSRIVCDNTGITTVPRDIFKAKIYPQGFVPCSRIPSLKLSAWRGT
Test: Stopped-flow kinetics of NO with EPO compounds I and II
Type: biochemical
Settings: 10 μM H2O2
Method: […] EPO was isolated from porcine whole blood obtained fresh at the slaughterhouse as described by Jorg et al. (1982) Biochim Biophys Acta 701:185-191. EPO was assayed by guaiacol oxidation (see Klebanoff et al. (1984) Methods Enzymol. 105:399-403). […] The concentration of the MPO dimer was calculated as half the indicated concentration of heme-like chromophore. Bovine LPO was obtained from Worthington Biochemistry Corporation (Lakewood, N.J.) and used without further purification.
Stopped-flow spectroscopy was used to investigate how NO interacts with intermediate forms of EPO and LPO during steady-state catalysis. […] The time courses for the formation and decay of compound II of both EPO and LPO in the absence of NO were examined by monitoring the absorbance change at 445 nm for EPO and at 430 nm for LPO. For both enzymes, the changes in absorbance that took place in the first 2 seconds of the reactions are shown and are attributed to the buildup of compound II. […] The subsequent decreases in absorbance at 455 and 430 nm observed for both enzymes were also fit to a single-exponential function with a rate constant of 0.005 s^−1 for EPO and 0.0005 s^−1 for LPO. […]
The addition of NO to reaction mixtures of EPO or LPO results in dramatic effects on the rates of compound II buildup, duration, and decay, as assessed by stopped-flow spectroscopy. […]

## [N]=O [NO, nitric oxide]
  enhancement of rate of EPO compound II accumulation: ~25 fold
